In US20260347338A1, “PYRIMIDINE/PYRIDINE DERIVATIVES OR SALTS THEREOF AND PHARMACEUTICAL COMPOSITIONS COMPRISING THE SAME” (YUHAN CORPORATION, priority 2023, published 2026):
Counter-ions that a name gives are not always drawn.

Each compound was assayed against T1, human recombinant HPK1 (Homo sapiens, UniProt Q92918) (assay: Inhibitory activity against human recombinant HPK1 (TR-FRET)). Conditions: ULight-p70S6K peptide, ATP at Km, room temperature, 1 hour, 0.32 to 1000 nM compound.
T1 construct: purchased BPS Bioscience
Format: biochemical
Method in brief: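 IC50 classes A–D use 10, 50 and 100 nM cut-offs, derived from TR-FRET signal inhibition relative to DMSO controls. Human recombinant HPK1 phosphorylated ULight-p70S6K peptide at Km ATP for 1 h, room temperature, pH 7.4; test range 0.32–1000 nM final, detection with Eu-labelled antibody after EDTA quench.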

T1 sequence (Q92918 whole entry): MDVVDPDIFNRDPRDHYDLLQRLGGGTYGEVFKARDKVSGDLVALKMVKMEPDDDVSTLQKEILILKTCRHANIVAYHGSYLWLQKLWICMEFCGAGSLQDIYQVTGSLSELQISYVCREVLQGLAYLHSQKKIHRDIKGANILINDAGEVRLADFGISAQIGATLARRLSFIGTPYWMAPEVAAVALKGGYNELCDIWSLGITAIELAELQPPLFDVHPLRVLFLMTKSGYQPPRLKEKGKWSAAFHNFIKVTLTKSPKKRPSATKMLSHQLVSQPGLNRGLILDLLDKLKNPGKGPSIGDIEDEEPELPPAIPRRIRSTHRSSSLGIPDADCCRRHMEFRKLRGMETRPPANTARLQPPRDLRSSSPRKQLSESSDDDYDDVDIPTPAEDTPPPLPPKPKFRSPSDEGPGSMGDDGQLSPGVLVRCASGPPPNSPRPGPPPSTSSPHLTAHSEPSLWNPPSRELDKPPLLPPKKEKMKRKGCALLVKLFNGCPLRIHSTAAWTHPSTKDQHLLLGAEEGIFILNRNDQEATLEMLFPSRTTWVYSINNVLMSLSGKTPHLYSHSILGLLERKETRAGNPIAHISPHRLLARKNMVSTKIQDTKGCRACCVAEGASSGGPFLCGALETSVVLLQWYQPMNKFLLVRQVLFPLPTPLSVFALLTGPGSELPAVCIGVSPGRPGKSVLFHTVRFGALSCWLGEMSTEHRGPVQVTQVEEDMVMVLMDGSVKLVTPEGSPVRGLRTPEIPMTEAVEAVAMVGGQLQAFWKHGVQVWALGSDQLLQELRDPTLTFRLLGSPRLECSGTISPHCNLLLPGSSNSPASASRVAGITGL

SMILES	IC50 [nM]
COc1cc(F)cc(F)c1-c1nc(Nc2cc(N3CC[C@@H](C)[C@H](N)C3)c(-c3cnn(C(F)F)c3)cn2)ccc1C#N [Example 338, 6-((4-((3S,4R)-3-amino-4-methylpiperidin-1-yl)-5-(1-(difluoromethyl)-1H-pyrazol-4-yl)pyridin-2-yl)amino)-2-(2,4-difluoro-6-methoxyphenyl)nicotinonitrile hydrochloride]	≤ 10
COc1cccc(F)c1-c1nc(Nc2cc(N3CCC[C@H](O)C3)c(C(=O)N[C@@H]3CC[C@H](O)C3)cn2)ccc1N [Example 202, 6-((5-amino-6-(2-fluoro-6-methoxyphenyl)pyridin-2-yl)amino)-N-((1R,3S)-3-hydroxycyclopentyl)-4-((S)-3-hydroxypiperidin-1-yl)nicotinamide]	≤ 10
COc1cccc(F)c1-c1nccc(Nc2cc(N3CCC[C@H](C(N)=O)C3)c(-c3cnn(C4CCOCC4)c3)cn2)n1 [Example 50, (S)-1-(2-((2-(2-fluoro-6-methoxyphenyl)pyrimidin-4-yl)amino)-5-(1-(tetrahydro-2H-pyran-4-yl)-1H-pyrazol-4-yl)pyridin-4-yl)piperidin-3-carboxamide]	> 100
COc1cccc(F)c1-c1nccc(Nc2cc(N3CCC[C@H](O)C3)c(-c3cnn(C4CCOCC4)c3)cn2)n1 [Example 7, (S)-1-(2-((2-(2-fluoro-6-methoxyphenyl)pyrimidin-4-yl)amino)-5-(1-(tetrahydro-2H-pyran-4-yl)-1H-pyrazol-4-yl)pyridin-4-yl)piperidin-3-ol]	≤ 10
N[C@H]1CCCN(c2cc(Nc3ccnc(-c4cc5nccnc5cc4F)n3)ncc2C#Cc2cnn(C(F)(F)F)c2)C1 [Example 115, (S)-N-(4-(3-aminopiperidin-1-yl)-5-((1-(trifluoromethyl)-1H-pyrazol-4-yl)ethynyl)pyridin-2-yl)-2-(7-fluoroquinoxalin-6-yl)pyrimidin-4-amine hydrochloride]	≤ 10
COc1cccc(F)c1-c1nccc(Nc2cc(N3CC[C@H](N)[C@H](F)C3)c(-c3cnn(C(F)F)c3)cn2)n1 [Example 307, N-(4-((3R,4S)-4-amino-3-fluoropiperidin-1-yl)-5-(1-(difluoromethyl)-1H-pyrazol-4-yl)pyridin-2-yl)-2-(2-fluoro-6-methoxyphenyl)pyrimidin-4-amine hydrochloride]	≤ 10
COc1cccc(F)c1-c1nc(Nc2cc(N3CCC[C@H](O)C3)c(-c3ccc(C(=O)N4CCC(O)CC4)nc3)cn2)ccc1[N+](=O)[O-] [Example 54, (6′-((6-(2-fluoro-6-methoxyphenyl)-5-nitropyridin-2-yl)amino)-4′-((S)-3-hydroxypiperidin-1-yl)-[3,3′-bipyridin]-6-yl)(4-hydroxypiperidin-1-yl)methanone]	10 to 50
COc1cccc(F)c1-c1nccc(Nc2cc(N3CCC[C@H](N)C3)c(-c3cnc4c(c3)OCC(=O)N4)cn2)n1 [Example 275, (S)-7-(4-(3-aminopiperidin-1-yl)-6-((2-(2-fluoro-6-methoxyphenyl)pyrimidin-4-yl)amino)pyridin-3-yl)-2H-pyrido[3,2-b][1,4]oxazin-3(4H)-one hydrochloride]	≤ 10
COc1cccc(F)c1-c1nccc(Nc2cc(N3CCC[C@H](N)C3)c(-c3ccc(N4CCOCC4)cc3)cn2)n1 [Example 286, (S)-N-(4-(3-aminopiperidin-1-yl)-5-(4-morpholinophenyl)pyridin-2-yl)-2-(2-fluoro-6-methoxyphenyl)pyrimidin-4-amine hydrochloride]	≤ 10
COc1cccc(F)c1-c1nccc(Nc2cc(N3CCC[C@H](O)C3)c(-c3ccc(CN4CCC(O)C4)nc3)cn2)n1 (stereo partly drawn) [Example 43, (3S)-1-(6-((2-(2-fluoro-6-methoxyphenyl)pyrimidin-4-yl)amino)-6′-((3-hydroxypyrrolidin-1-yl)methyl)-[3,3′-bipyridin]-4-yl)piperidin-3-ol]	≤ 10
COc1cc(C(=O)N2CC[C@H](F)C2)cc(F)c1-c1nccc(Nc2cc(N3CCC[C@H](O)C3)c(-c3cnn(C(F)F)c3)cn2)n1 [Example 232, (4-(4-((5-(1-(difluoromethyl)-1H-pyrazol-4-yl)-4-((S)-3-hydroxypiperidin-1-yl)pyridin-2-yl)amino)pyrimidin-2-yl)-3-fluoro-5-methoxyphenyl)((S)-3-fluoropyrrolidin-1-yl)methanone]	≤ 10

Now from value to compound:

IC50 [nM]	SMILES
≤ 10	COc1cccc(F)c1-c1nc(Nc2cc(N3CCC[C@H](O)C3)c(C(=O)N[C@@H]3CC[C@H](N)C3)cn2)ccc1[N+](=O)[O-] [Example 200, N-((1R,3S)-3-aminocyclopentyl)-6-((6-(2-fluoro-6-methoxyphenyl)-5-nitropyridin-2-yl)amino)-4-((S)-3-hydroxypiperidin-1-yl)nicotinamide]
10 to 50	O[C@H]1CCCN(c2cc(Nc3ccnc(-c4cnn5ccccc45)n3)ncc2-c2cnn(C3CCOCC3)c2)C1 [Example 27, (S)-1-(2-((2-(pyrazolo[1,5-a]pyridin-3-yl)pyrimidin-4-yl)amino)-5-(1-(tetrahydro-2H-pyran-4-yl)-1H-pyrazol-4-yl)pyridin-4-yl)piperidin-3-ol]
≤ 10	COc1cccc(F)c1-c1nccc(Nc2cc(N3CCC[C@H](N)C3)c(C#Cc3cnn(C(F)F)c3)cn2)n1 [Example 164, (S)-N-(4-(3-aminopiperidin-1-yl)-5-((1-(difluoromethyl)-1H-pyrazol-4-yl)ethynyl)pyridin-2-yl)-2-(2-fluoro-6-methoxyphenyl)pyrimidin-4-amine hydrochloride]
≤ 10	COc1cccc(F)c1-c1nccc(Nc2cc(N3CCC[C@H](N)C3)c(-c3ccc(C4CCOCC4)nc3)cn2)n1 [Example 82, (S)-4-(3-aminopiperidin-1-yl)-N-(2-(2-fluoro-6-methoxyphenyl)pyrimidin-4-yl)-6′-(tetrahydro-2H-pyran-4-yl)-[3,3′-bipyridin]-6-amine hydrochloride]
≤ 10	COc1cccc(F)c1-c1nc(Nc2cc(N3CCC[C@H](O)C3)c(C#Cc3cnn(C(F)F)c3)cn2)ccc1[N+](=O)[O-] [Example 222, (3S)-1-(5-((1-(difluoromethyl)-1H-pyrazol-4-yl)ethynyl)-2-((6-(2-fluoro-6-methoxyphenyl)-5-nitropyridin-2-yl)amino)pyridin-4-yl)piperidin-3-ol]
≤ 10	COc1cc(C=O)cc(F)c1-c1nccc(Nc2cc(N3CCC[C@H](O)C3)c(-c3cnn(C4CCOCC4)c3)cn2)n1 [Example 189, (S)-3-fluoro-4-(4-((4-(3-hydroxypiperidin-1-yl)-5-(1-(tetrahydro-2H-pyran-4-yl)-1H-pyrazol-4-yl)pyridin-2-yl)amino)pyrimidin-2-yl)-5-methoxybenzaldehyde]
≤ 10	COc1cc(F)cc(F)c1-c1nccc(Nc2cc(N3CC[C@@H](C)[C@H](N)C3)c(-c3cnn(C(F)F)c3)cn2)n1 [Example 211, N-(4-((3S,4R)-3-amino-4-methylpiperidin-1-yl)-5-(1-(difluoromethyl)-1H-pyrazol-4-yl)pyridin-2-yl)-2-(2,4-difluoro-6-methoxyphenyl)pyrimidin-4-amine hydrochloride]
≤ 10	COc1cccc(F)c1-c1nccc(Nc2cc(N3CCC[C@H](N)C3)c(-c3cnn(C4CCN(C)CC4)c3)cn2)n1 [Example 74, (S)-N-(4-(3-aminopiperidin-1-yl)-5-(1-(1-methylpiperidin-4-yl)-1H-pyrazol-4-yl)pyridin-2-yl)-2-(2-fluoro-6-methoxyphenyl)pyrimidin-4-amine hydrochloride]
